Measured values as given in patent US10570108B2, “Substituted benzofuran compounds for the treatment of hepatitis C” (BRISTOL-MYERS SQUIBB COMPANY, priority 2015, dated 2020).

System: HCV replicon
Test: HCV replicon luciferase assay
Type: cell-based
Settings: Hepatitis C virus, Huh-7, 72 h
Experimental: Cell lines. The cell lines used to evaluate compounds consist of a human hepatocyte derived cell line (Huh-7) that constitutively expresses a genotype 1b (Con-1) HCV replicon or a genotype 1b (Con-1) HCV replicon with an asparagine replacing the cysteine at amino acid 316, or a genotype 2a (JFH-1) replicon, containing a Renilla luciferase reporter gene. These cells were maintained in Dulbecco's modified Eagle medium (DMEM) containing 10% FBS, 100 U/mL penicillin/streptomycin and 1.0 mg/mL G418.
HCV replicon luciferase assay. To evaluate compound efficacy, titrated compounds were transferred to sterile 384-well tissue culture treated plates, and the plates were seeded with HCV replicon cells (50 μL at a density of 2.4×10^3 cells/well) in DMEM containing 4% FBS (final DMSO concentration at 0.5%). After 3 days incubation at 37° C., cells were analyzed for Renilla Luciferase activity using the EnduRen substrate (Promega cat #E6485) according to the manufacturer's directions. Briefly, the EnduRen substrate was diluted in DMEM and then added to the plates to a final concentration of 7.5 μM. The plates were incubated for at least 1 h at 37° C. then read on a Viewlux Imager (PerkinElmer) using a luminescence program. The 50% effective concentration (EC50) was calculated using the four-parameter logistic formula noted above.

Structure (SMILES) | EC50
CCN(CC)c1cc2oc(-c3ccc(F)cc3)c(C(=O)NC)c2cc1-c1cccc(C(=O)N[C@H]2C(O)O[C@H](CO)[C@@H](O)[C@@H]2O)c1 (stereo partly shown) [Compound 1001] | 2820 nM
CCN(CC)c1cc2oc(-c3ccc(F)cc3)c(C(=O)NC)c2cc1-c1cccc(C(=O)NCCC2(O)CCCC2)c1 [Compound 1002] | < 100 nM
CCN(CC)c1cc2oc(-c3ccc(F)cc3)c(C(=O)NC)c2cc1-c1cccc(C(=O)NC[C@H]2CCCC[C@H]2O)c1 [Compound 1003] | < 100 nM
CCOC(=O)[C@@H]1CCCC[C@@H]1NC(=O)c1cccc(-c2cc3c(C(=O)NC)c(-c4ccc(F)cc4)oc3cc2N(CC)CC)c1 [Compound 1004] | < 100 nM
CCN(CC)c1cc2oc(-c3ccc(F)cc3)c(C(=O)NC)c2cc1-c1cccc(C(=O)NC2CC(O)C2)c1 (stereo not shown) [Compound 1005] | < 100 nM
CCN(CC)c1cc2oc(-c3ccc(F)cc3)c(C(=O)NC)c2cc1-c1cccc(C(=O)NC2CCC(O)C2)c1 (stereo not shown) [Compound 1006] | 44.5 nM
CCOC(=O)[C@H]1CCCC[C@@H]1NC(=O)c1cccc(-c2cc3c(C(=O)NC)c(-c4ccc(F)cc4)oc3cc2N(CC)CC)c1 [Compound 1007] | < 100 nM
CCOC(=O)CC1(NC(=O)c2cccc(-c3cc4c(C(=O)NC)c(-c5ccc(F)cc5)oc4cc3N(CC)CC)c2)CCCCC1 [Compound 1008] | < 100 nM
CCN(CC)c1cc2oc(-c3ccc(F)cc3)c(C(=O)NC)c2cc1-c1cccc(C(=O)N[C@H]2CC=CC[C@H]2CO)c1 [Compound 1009] | < 100 nM
CCN(CC)c1cc2oc(-c3ccc(F)cc3)c(C(=O)NC)c2cc1-c1cccc(C(=O)NCc2ccccc2C(=O)OC)c1 [Compound 1010] | < 100 nM
CCN(CC)c1cc2oc(-c3ccc(F)cc3)c(C(=O)NC)c2cc1-c1cccc(C(=O)NCC2(Cn3cccn3)CC2)c1 [Compound 1011] | 26.1 nM
CCN(CC)c1cc2oc(-c3ccc(F)cc3)c(C(=O)NC)c2cc1-c1cccc(C(=O)NCCCn2ccnc2)c1 [Compound 1012] | < 100 nM
CCN(CC)c1cc2oc(-c3ccc(F)cc3)c(C(=O)NC)c2cc1-c1cccc(C(=O)NCCCn2cncn2)c1 [Compound 1013] | < 100 nM
CCN(CC)c1cc2oc(-c3ccc(F)cc3)c(C(=O)NC)c2cc1-c1cccc(C(=O)NCCN2CCNC2=O)c1 [Compound 1014] | < 100 nM
CCOP(=O)(CCCNC(=O)c1cccc(-c2cc3c(C(=O)NC)c(-c4ccc(F)cc4)oc3cc2N(CC)CC)c1)OCC [Compound 1015] | < 100 nM
CCN(CC)c1cc2oc(-c3ccc(F)cc3)c(C(=O)NC)c2cc1-c1cccc(C(=O)NCCNS(=O)(=O)c2ccc(C)cc2)c1 [Compound 1016] | 32.5 nM
CCN(CC)c1cc2oc(-c3ccc(F)cc3)c(C(=O)NC)c2cc1-c1cccc(C(=O)NCC(=N)N)c1 [Compound 1017] | 100 to 1000 nM
CCN(CC)c1cc2oc(-c3ccc(F)cc3)c(C(=O)NC)c2cc1-c1cccc(C(=O)NCC2(c3ccccc3)CC2)c1 [Compound 1018] | 100 to 1000 nM
CCN(CC)c1cc2oc(-c3ccc(F)cc3)c(C(=O)NC)c2cc1-c1cccc(C(=O)NCC2(C#N)CC2)c1 [Compound 1019] | < 100 nM
CCN(CC)c1cc2oc(-c3ccc(F)cc3)c(C(=O)NC)c2cc1-c1cccc(C(=O)NCC2(COC)CC2)c1 [Compound 1020] | < 100 nM
CCN(CC)c1cc2oc(-c3ccc(F)cc3)c(C(=O)NC)c2cc1-c1cccc(C(=O)NCC2(COc3ccccc3)CC2)c1 [Compound 1021] | 172 nM
CCN(CC)c1cc2oc(-c3ccc(F)cc3)c(C(=O)NC)c2cc1-c1cccc(C(=O)NCCCOc2ccccc2)c1 [Compound 1022] | < 100 nM
CCN(CC)c1cc2oc(-c3ccc(F)cc3)c(C(=O)NC)c2cc1-c1cccc(C(=O)NCCOc2ccccc2)c1 [Compound 1023] | < 100 nM
CC[C@H](COCc1ccccc1)NC(=O)c1cccc(-c2cc3c(C(=O)NC)c(-c4ccc(F)cc4)oc3cc2N(CC)CC)c1 [Compound 1024] | 100 to 1000 nM
CCN(CC)c1cc2oc(-c3ccc(F)cc3)c(C(=O)NC)c2cc1-c1cccc(C(=O)NCCOCc2ccccc2)c1 [Compound 1025] | < 100 nM
CCN(CC)c1cc2oc(-c3ccc(F)cc3)c(C(=O)NC)c2cc1-c1cccc(C(=O)NC2CCNC2=O)c1 (stereo not shown) [Compound 1026] | 11.1 nM
CCN(CC)c1cc2oc(-c3ccc(F)cc3)c(C(=O)NC)c2cc1-c1cccc(C(=O)NC2CNC(=O)C2)c1 (stereo not shown) [Compound 1027] | < 100 nM
CCN(CC)c1cc2oc(-c3ccc(F)cc3)c(C(=O)NC)c2cc1-c1cccc(C(=O)NC2CCOCC2)c1 [Compound 1028] | < 100 nM

Structure (SMILES) | EC50
CCN(CC)c1cc2oc(-c3ccc(F)cc3)c(C(=O)NC)c2cc1-c1cccc(C(=O)NC2CCOC2)c1 (stereo not shown) [Compound 1029] | < 100 nM
CCN(CC)c1cc2oc(-c3ccc(F)cc3)c(C(=O)NC)c2cc1-c1cccc(C(=O)N[C@@H]2C3CCC(C3)[C@@H]2CO)c1 (stereo partly shown) [Compound 1030] | < 100 nM
CCN(CC)c1cc2oc(-c3ccc(F)cc3)c(C(=O)NC)c2cc1-c1cccc(C(=O)N[C@@]2(C)[C@@H](C(=O)OC)C[C@H]3C[C@@H]2C3(C)C)c1 [Compound 1031] | 116 nM
CCN(CC)c1cc2oc(-c3ccc(F)cc3)c(C(=O)NC)c2cc1-c1cccc(C(=O)N[C@]2(C)[C@H](C(=O)OC)C[C@@H]3C[C@H]2C3(C)C)c1 [Compound 1032] | < 100 nM
CCN(CC)c1cc2oc(-c3ccc(F)cc3)c(C(=O)NC)c2cc1-c1cccc(C(=O)NC(C)[C@@]23C[C@@H]4C[C@@H](C[C@@](O)(C4)C2)C3)c1 (stereo partly shown) [Compound 1033] | < 100 nM
CCN(CC)c1cc2oc(-c3ccc(F)cc3)c(C(=O)NC)c2cc1-c1cccc(C(=O)N[C@@]23C[C@@H]4C[C@@H](C[C@@](O)(C4)C2)C3)c1 [Compound 1034] | < 100 nM
CCN(CC)c1cc2oc(-c3ccc(F)cc3)c(C(=O)NC)c2cc1-c1cccc(C(=O)NC23CC4(C)CC(C)(CC(O)(C4)C2)C3)c1 [Compound 1035] | < 100 nM
CCN(CC)c1cc2oc(-c3ccc(F)cc3)c(C(=O)NC)c2cc1-c1cccc(C(=O)NCC2(C)COC2)c1 [Compound 1036] | 26.6 nM
CCN(CC)c1cc2oc(-c3ccc(F)cc3)c(C(=O)NC)c2cc1-c1cccc(C(=O)NCC2(CO)COC2)c1 [Compound 1037] | < 100 nM
CCN(CC)c1cc2oc(-c3ccc(F)cc3)c(C(=O)NC)c2cc1-c1cccc(C(=O)N[C@H]2C3CCC(C3)[C@H]2C(=O)O)c1 (stereo partly shown) [Compound 1038] | 100 to 1000 nM
CCN(CC)c1cc2oc(-c3ccc(F)cc3)c(C(=O)NC)c2cc1-c1cccc(C(=O)NCCCS(=O)(=O)O)c1 [Compound 1039] | > 1000 nM
CCN(CC)c1cc2oc(-c3ccc(F)cc3)c(C(=O)NC)c2cc1-c1cccc(C(=O)NCS(=O)(=O)O)c1 [Compound 1040] | > 1000 nM
CCN(CC)c1cc2oc(-c3ccc(F)cc3)c(C(=O)NC)c2cc1-c1cccc(C(=O)N[C@H]2CCC[C@H]2C(=O)O)c1 [Compound 1041] | 135 nM
CCN(CC)c1cc2oc(-c3ccc(F)cc3)c(C(=O)NC)c2cc1-c1cccc(C(=O)N[C@H]2CCC[C@H]2C(=O)N[C@H]2CCC[C@H]2C(=O)O)c1 [Compound 1042] | 100 to 1000 nM
CCN(CC)c1cc2oc(-c3ccc(F)cc3)c(C(=O)NC)c2cc1-c1cccc(C(=O)N[C@H](CC(=O)O)CC(C)C)c1 [Compound 1043] | < 100 nM
CCN(CC)c1cc2oc(-c3ccc(F)cc3)c(C(=O)NC)c2cc1-c1cccc(C(=O)N[C@H](CC(=O)N[C@H](CC(=O)O)CC(C)C)CC(C)C)c1 [Compound 1044] | 100 to 1000 nM
CCN(CC)c1cc2oc(-c3ccc(F)cc3)c(C(=O)NC)c2cc1-c1cccc(C(=O)N[C@@H]2CCCC[C@H]2C(=O)N[C@@H]2CCCC[C@H]2C(=O)O)c1 [Compound 1045] | > 1000 nM
CCN(CC)c1cc2oc(-c3ccc(F)cc3)c(C(=O)NC)c2cc1-c1cccc(C(=O)NC2(CC(=O)O)CCCC2)c1 [Compound 1046] | 22.2 nM
CCN(CC)c1cc2oc(-c3ccc(F)cc3)c(C(=O)NC)c2cc1-c1cccc(C(=O)N[C@H]2CCCC[C@H]2C(=O)O)c1 [Compound 1047] | < 100 nM
CCN(CC)c1cc2oc(-c3ccc(F)cc3)c(C(=O)NC)c2cc1-c1cccc(C(=O)N[C@@H]2CCCC[C@@H]2C(=O)O)c1 [Compound 2001] | 100 to 1000 nM
CCN(CC)c1cc2oc(-c3ccc(F)cc3)c(C(=O)NC)c2cc1-c1cccc(C(=O)NC2(CC(=O)O)CCCCC2)c1 [Compound 2002] | < 100 nM
CCOP(=O)(O)CCCNC(=O)c1cccc(-c2cc3c(C(=O)NC)c(-c4ccc(F)cc4)oc3cc2N(CC)CC)c1 [Compound 2003] | > 1000 nM
CNC(=O)c1c(-c2ccc(F)cc2)oc2cc([N+](=O)[O-])c(-c3cccc(C(=O)NC(CO)(CO)CO)c3)cc12 [Compound 3001] | 2540 nM
CNC(=O)c1c(-c2ccc(F)cc2)oc2cc([N+](=O)[O-])c(-c3cccc(C(=O)N(Cc4ccc(OC)cc4OC)C(CO)(CO)CO)c3)cc12 [Compound 3002] | > 1000 nM
CNC(=O)c1c(-c2ccc(F)cc2)oc2cc(N)c(-c3cccc(C(=O)NC(CO)(CO)CO)c3)cc12 [Compound 3003] | > 1000 nM
CCNc1cc2oc(-c3ccc(F)cc3)c(C(=O)NC)c2cc1-c1cccc(C(=O)NC(CO)(CO)CO)c1 [Compound 3004] | < 100 nM
CCN(CC)c1cc2oc(-c3ccc(F)cc3)c(C(=O)NC)c2cc1-c1cccc(C(=O)NC(CO)(CO)CO)c1 [Compound 3005] | < 100 nM
